Results: ChEMBL document CHEMBL3734721 (J Med Chem, 2015)

Assays:
[1] = target: Delta-type opioid receptor (Homo sapiens, UniProt P41143); test: Agonist activity at human wild-type opioid-delta 1 receptor expressed in CHO-K1 cells assessed as cAMP level by HTRF assay; type: functional, cell-based
human MDR1 = test: Efflux ratio of permeability across basolateral to apical side over apical to basolateral side in MDCK cells expressing human MDR1 at 5 uM by LC-MS/MS method; type: ADME, cell-based, Canis lupus familiaris; conditions: dog

Sequence of Delta-type opioid receptor (P41143 whole entry): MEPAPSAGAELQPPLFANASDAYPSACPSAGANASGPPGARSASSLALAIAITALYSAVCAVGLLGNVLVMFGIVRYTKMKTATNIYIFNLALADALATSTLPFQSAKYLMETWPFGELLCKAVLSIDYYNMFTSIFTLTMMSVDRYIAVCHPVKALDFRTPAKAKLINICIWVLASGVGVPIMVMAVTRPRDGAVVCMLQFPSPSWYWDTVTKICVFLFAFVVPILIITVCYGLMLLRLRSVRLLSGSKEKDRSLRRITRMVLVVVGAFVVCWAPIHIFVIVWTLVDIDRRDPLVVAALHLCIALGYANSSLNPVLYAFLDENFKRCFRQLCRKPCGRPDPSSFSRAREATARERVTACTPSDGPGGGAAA

| EC50 [1] | efflux ratio at 5 µM (human MDR1) | SMILES |
| --- | --- | --- |
| > 5.01 µM | – | CB1C=Cc2c(cccc2OCC(O)CN(C)C)N1 (configuration not stated) |
| – | 2.1 | CB1C=Cc2cccc(OCC(O)CNC(C)C)c2N1 (configuration not stated) |
